One assay has as its target T1, Dbp5p (Saccharomyces cerevisiae, UniProt P20449).
T1 sequence (P20449 1-482): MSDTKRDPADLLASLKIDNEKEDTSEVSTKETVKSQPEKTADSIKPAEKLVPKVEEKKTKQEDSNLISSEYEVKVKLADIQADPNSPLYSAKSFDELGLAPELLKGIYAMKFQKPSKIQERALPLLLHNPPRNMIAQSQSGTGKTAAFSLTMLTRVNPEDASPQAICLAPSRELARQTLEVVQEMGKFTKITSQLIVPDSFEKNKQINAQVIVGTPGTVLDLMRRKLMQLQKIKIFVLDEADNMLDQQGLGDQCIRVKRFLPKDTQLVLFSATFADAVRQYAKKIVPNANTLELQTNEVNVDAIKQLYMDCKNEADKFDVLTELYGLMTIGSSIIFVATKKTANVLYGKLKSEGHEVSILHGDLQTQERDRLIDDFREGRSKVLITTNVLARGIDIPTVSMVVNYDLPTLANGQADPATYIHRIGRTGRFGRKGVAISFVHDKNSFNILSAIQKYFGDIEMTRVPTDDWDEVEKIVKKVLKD
The assay is described as follows: inhibition of RNA duplex unwinding, native PAGE. In kind it is biochemical. To be noted: 0.5 mM nucleotide, 0.5 mM ATP, 40 mM Hepes pH 7.5, 30 °C.

The target in a further assay is T2, Sub2p (Saccharomyces cerevisiae, UniProt Q07478).
T2 sequence (Q07478 2-446): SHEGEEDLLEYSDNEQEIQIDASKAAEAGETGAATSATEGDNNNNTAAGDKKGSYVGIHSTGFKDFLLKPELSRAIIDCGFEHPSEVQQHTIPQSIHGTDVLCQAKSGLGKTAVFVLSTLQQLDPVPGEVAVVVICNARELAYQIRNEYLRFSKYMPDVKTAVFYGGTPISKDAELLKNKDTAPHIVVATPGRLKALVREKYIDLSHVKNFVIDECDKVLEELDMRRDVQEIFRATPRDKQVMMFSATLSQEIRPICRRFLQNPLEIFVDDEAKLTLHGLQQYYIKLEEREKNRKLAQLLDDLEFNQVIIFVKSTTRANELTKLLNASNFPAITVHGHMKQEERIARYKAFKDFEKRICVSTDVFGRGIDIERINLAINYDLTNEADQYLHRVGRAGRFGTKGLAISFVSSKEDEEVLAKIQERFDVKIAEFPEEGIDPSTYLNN
Briefly: inhibition of RNA duplex unwinding, native PAGE. In kind it is biochemical. To be noted: 0.5 mM nucleotide, 0.5 mM ATP, 10 mM Tris pH 7.0, 50 mM KCl, 30 °C.

Another assay concerns the target Ded1p (Saccharomyces cerevisiae, UniProt P06634). The assay is described as follows: fluorescence competition with mantADP. To be noted: no RNA; pH 8.0, 50 mM NaCl, 0.5 mM excess Mg2+, 19 °C. In kind it is binding.

Ded1p, sequence (P06634 2-604): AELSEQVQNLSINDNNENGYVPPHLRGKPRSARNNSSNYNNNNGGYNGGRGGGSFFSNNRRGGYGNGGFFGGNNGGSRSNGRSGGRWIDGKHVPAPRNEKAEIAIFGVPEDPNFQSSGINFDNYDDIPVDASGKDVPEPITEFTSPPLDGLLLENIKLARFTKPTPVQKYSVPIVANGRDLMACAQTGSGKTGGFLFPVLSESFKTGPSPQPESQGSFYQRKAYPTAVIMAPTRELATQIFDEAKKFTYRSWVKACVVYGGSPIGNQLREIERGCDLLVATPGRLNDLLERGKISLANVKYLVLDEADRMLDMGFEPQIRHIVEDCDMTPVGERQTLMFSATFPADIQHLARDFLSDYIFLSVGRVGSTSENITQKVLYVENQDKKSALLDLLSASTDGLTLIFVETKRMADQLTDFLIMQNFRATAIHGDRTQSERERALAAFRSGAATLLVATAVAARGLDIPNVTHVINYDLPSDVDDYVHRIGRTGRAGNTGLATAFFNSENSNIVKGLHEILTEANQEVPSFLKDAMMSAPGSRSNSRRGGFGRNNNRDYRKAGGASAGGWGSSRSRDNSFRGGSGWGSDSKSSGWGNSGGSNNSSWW

Turning to `Nc1ncnc2c1ncn2[C@@H]1O[C@H](COP(=O)(O)OP(=O)(O)O)[C@@H](O)[C@H]1O` [ADP], the kunw result is “Sub2p and Dbp5p showed only significant inhibition by ADP” on Dbp5p; “Sub2p and Dbp5p showed only significant inhibition by ADP” at Sub2p.
As to `Nc1ncnc2c1ncn2[C@@H]1O[C@H](COP(=O)(O)OP(=O)(O)OP(=O)(O)O)[C@@H](O)[C@H]1O` [ATP], on Ded1p, the K1/2 result was “Binding of ATP (red), ADP (blue), and AMP (green) to Ded1p in the absence of RNA”.

Values taken from paper PMC3795843 (Journal of molecular biology, 2013).
